# Measurements taken from US9821173B2, “Anti-cancer agents and methods of use” (Case Western Reserve University, priority 2013, dated 2017).
# “Also recorded” adds a separate entry of the source.
# What was measured:
# CEM-C7 = experiment: Cell proliferation / cytotoxicity assay; assay type: cell-based; conditions: cell viability, cell-titer blue, up to 48 hours
# Method: (§1) HeLa, MCF-7, HCT-116, and CEM-C7 were obtained from the American Type Culture Collection (Manassas, Va., USA). All adherent cell lines were maintained in Dulbecco's modified Eagle's medium (Mediatech) with 100 U/ml penicillin (Invitrogen), 100 μg/ml streptomycin (Invitrogen), 0.25 μg/ml amphotericin B (Invitrogen), and 10% fetal bovine serum (USA Scientific) and incubated at 37° C. with 5% CO2. CEM cells were maintained in RPMI-1640 media supplemented with 100 U/ml penicillin, 100 μg/ml streptomycin, 0.25 μg/ml amphotericin B, and 10% fetal bovine serum and incubated at 37° C. with […].
# (§2) Cells were plated at a density of 7,000-13,000/well in 200 μl of media overnight in a 96-well plate. Each (phosphine)gold(I)-indole was added to wells in a dose-dependent manner (0.01-100 μM). Cells were treated with compounds for variable time periods (8-48 hours). With adherent cell lines, medium was removed from the wells and then 100 μl of fresh medium was added into each well followed by the addition of 20 μl of cell titer-blue reagent (Promega). Cells were incubated with reagent for 1-4 hrs and the optical density of samples was read at 560 nm using a microplate reader. The background absorbance of dye with media was subtracted from each sample. Cell viability was then normalized against cells treated with DMSO. IC50 values were obtained using a fit of the data to Equation 1: Y=100%/[1+(IC50/Inhibitor)] (1)
# (§3) where y is the fraction of viable cells, IC50 is the concentration of inhibitor that inhibits 50% cell growth, and Inhibitor is the concentration of compound tested.
# (§4) The cellular effects of these (phosphine)gold(I) indoles were tested against several cancer cell lines including HeLa (cervical cancer), MCF-7 (breast cancer), HCT-116 (colon cancer), and CEM-C7 (leukemia). The dose-dependency of each modified indole on cell viability was assessed using a cell-titer blue assay as previously described. In these experiments, cells were exposed to variable concentrations of each (phosphine)gold(I) indole (0.01-100 μM) for up to 48 hours and then assessed for viability.
# Defining this mechanism of cell death is important as necrosis can cause various side-effects including septic shock and kidney failure that can obviously compromise patient health.
# γH2AX foci in HeLa cells = conditions: 2 Gy IR, compound 4 7 μM; for number of γH2AX foci 30 minutes post IR exposure: compound 3 4 μM
# Method: HeLa cells were plated at a density of 40,000 cells/ml in 24-well glass bottom plate for 24 hr. After this time, cells were treated with Au(I)indole compounds at desired concentration for an additional 24 hr. The cells were irradiated at 2 Gys. Cells were fixed with 4% paraformaldehyde for 15 min at 37° C. at time points corresponding to 0.5, 1, 2, and 4 hrs. Cells were washed with 1×PBS and permeabilized in 0.2% Triton X-100 for 15 min at 37° C. […] Mouse monoclonal anti-phospho-histone H2AX antibody (Millipore) was applied (1:500 dilution) to each well for one hour. After washing several times with blocking buffer, a 1:500 dilution of goat anti-mouse secondary antibody conjugated with Alexa 647 (Invitrogen) was added for 1 hr. The wells were then washed several times, and the number of γH2AX foci per nuclei was measured using an iCyte laser scanning cytometer with a red long pass filter (650 nm). To collect accurate data, a threshold was set to minimize noise produced by unrelated events using iNovator software (version 3.4.2.52). Each well was scanned using a 40× magnification with 0.25 μm× step and a field size of 250×186 μm (1000×768 pixels). Data were plotted as the percentage of cells as a function of foci number. The resulting histogram was fit to the equation for a Gaussian distribution (Equation 2). Y=1/(2πσ^2)^1/2e^−[(χ−m)2/2σ2] (2)
# where Y is the percentage of cells, μ is the mean, and σ is the variance used to define the width of the mean.
# HCT-116 = experiment: Cell proliferation assay (cell-titer blue); assay type: cell-based; conditions: cell viability, up to 48 hours, read-out: IC50 HCT116
# Method: as §1, §2, §3, §4
# HeLa = experiment: Cell proliferation assay (cell-titer blue); assay type: cell-based; conditions: cell viability, cell-titer blue, up to 48 hours
# Method: as §1, §2, §3, §4
# MCF-7 = experiment: Cell proliferation assay (cell-titer blue); assay type: cell-based; conditions: cell viability, up to 48 hours
# Method: as §1, §2, §3, §4
# FLT2 = experiment: Kinase inhibition screening (Luceome); assay type: biochemical, human; conditions: 10 μM
# From the text: (§5) It is well established that dysfunctional and unregulated kinase activity plays significant roles in cancer initiation and progression. […] Inspection of the data provides several interesting observations. […] These inhibitory effects at this concentration are consistent with their measured IC50 values that are also in the μM range (Table 1). In addition, several kinases display overlapping inhibitory responses to both gold(I) compounds. Many of these are of particular interest since they are involved in cancer initiation and/or progression. For example, the Aurora kinase family members, Aurora A and Aurora B, as well as the MARK2 and MARK3 kinases function during mitosis to regulate cell division. These kinases are important therapeutic targets as their activities are often deregulated in many types of cancers. Other kinases such as RPS6KA3 and MLK3 are involved in the MAP kinase and JNK pathways which are also important in cancer progression.
# FLT3 = target: T1, FLT3 (Homo sapiens, UniProt P36888); experiment: Kinase inhibition screening (Luceome); assay type: biochemical; conditions: 10 μM
# T1 construct: purchased Luceome Biotechnologies (Tucson, Ariz.)
# From the text: as §5
# ITK = target: T2, ITK (Homo sapiens, UniProt Q08881); experiment: Kinase inhibition screening (Luceome); assay type: biochemical; conditions: 10 μM
# T2 construct: purchased Luceome Biotechnologies (Tucson, Ariz.)
# From the text: as §5
# GSK3α = target: T3, GSK3α (Homo sapiens, UniProt P49840); experiment: Kinase inhibition screening (Luceome); assay type: biochemical; conditions: 10 μM
# T3 construct: purchased Luceome Biotechnologies (Tucson, Ariz.)
# From the text: as §5
# MARK1 = target: T4, MARK1 (Homo sapiens, UniProt Q9P0L2); experiment: Kinase inhibition screening (Luceome); assay type: biochemical; conditions: 10 μM
# T4 construct: purchased Luceome Biotechnologies (Tucson, Ariz.)
# From the text: as §5
# IGF1R = target: T5, IGF1R (Homo sapiens, UniProt P08069); experiment: Kinase inhibition screening (Luceome); assay type: biochemical; conditions: 10 μM
# T5 construct: purchased Luceome Biotechnologies (Tucson, Ariz.)
# From the text: as §5
# FYN = target: T6, FYN (Homo sapiens, UniProt P06241); experiment: Kinase inhibition screening (Luceome); assay type: biochemical; conditions: 10 μM
# T6 construct: purchased Luceome Biotechnologies (Tucson, Ariz.)
# From the text: as §5
# MARK2 = target: T7, MARK2 (Homo sapiens, UniProt Q7KZI7); experiment: Kinase inhibition screening (Luceome); assay type: biochemical; conditions: 10 μM
# T7 construct: purchased Luceome Biotechnologies (Tucson, Ariz.)
# From the text: as §5
# LYN = target: T8, LYN (Homo sapiens, UniProt P07948); experiment: Kinase inhibition screening (Luceome); assay type: biochemical; conditions: 10 μM
# T8 construct: purchased Luceome Biotechnologies (Tucson, Ariz.)
# From the text: as §5
# BSA = BSA (Bos taurus, UniProt P02769); experiment: Reactivity of Au(I)-compounds with BSA thiol (DTNB -SH titer); parameters: species or system bovine; conditions: 120 μM compound, Au(I)/BSA ratios up to 4:1, one hour, 37° C., PBS
# Method: PBS was used as the reaction buffer.
# We tested the ability of various Au(I)-complexes to non-selectively react with BSA. […] P2 resin was effective in retaining Au(I)-containing compounds including compound 3 and compound 4. However, BSA was not retained in the resin as >95% of the BSA loaded into the Penefsky column is recovered in the eluant. […] Values obtained from reactions containing BSA incubated with the various Au(I) complexes were compared to identical reactions containing BSA alone and eluted through Penefsky columns.
# rat liver TrxR = rat liver TrxR (Rattus norvegicus, UniProt O89049); experiment: Thioredoxin reductase inhibition (DTNB assay); conditions: 40 μM compound, 600 nM TrxR, 25° C.
# [1] = Reactivity toward L-cysteine (DTNB); conditions: 400 μM L-cysteine with equivalent concentration of compound
# T2 sequence (Q08881 whole entry): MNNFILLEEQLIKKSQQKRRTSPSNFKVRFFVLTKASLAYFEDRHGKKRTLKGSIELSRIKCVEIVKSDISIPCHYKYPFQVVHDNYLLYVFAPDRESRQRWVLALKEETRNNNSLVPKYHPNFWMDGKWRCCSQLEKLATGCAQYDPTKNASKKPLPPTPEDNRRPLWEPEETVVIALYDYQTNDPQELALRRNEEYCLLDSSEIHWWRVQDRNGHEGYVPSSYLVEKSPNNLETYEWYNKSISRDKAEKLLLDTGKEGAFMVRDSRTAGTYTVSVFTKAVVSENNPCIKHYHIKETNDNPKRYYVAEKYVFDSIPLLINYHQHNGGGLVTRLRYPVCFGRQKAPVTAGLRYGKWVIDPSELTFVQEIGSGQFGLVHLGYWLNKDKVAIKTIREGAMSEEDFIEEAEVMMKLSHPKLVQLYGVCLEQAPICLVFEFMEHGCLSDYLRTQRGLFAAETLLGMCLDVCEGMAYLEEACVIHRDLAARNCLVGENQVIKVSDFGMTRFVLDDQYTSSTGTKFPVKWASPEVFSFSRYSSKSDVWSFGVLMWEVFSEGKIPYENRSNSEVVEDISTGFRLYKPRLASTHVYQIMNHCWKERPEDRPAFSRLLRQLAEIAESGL
# Chain of BSA (P02769 25-607): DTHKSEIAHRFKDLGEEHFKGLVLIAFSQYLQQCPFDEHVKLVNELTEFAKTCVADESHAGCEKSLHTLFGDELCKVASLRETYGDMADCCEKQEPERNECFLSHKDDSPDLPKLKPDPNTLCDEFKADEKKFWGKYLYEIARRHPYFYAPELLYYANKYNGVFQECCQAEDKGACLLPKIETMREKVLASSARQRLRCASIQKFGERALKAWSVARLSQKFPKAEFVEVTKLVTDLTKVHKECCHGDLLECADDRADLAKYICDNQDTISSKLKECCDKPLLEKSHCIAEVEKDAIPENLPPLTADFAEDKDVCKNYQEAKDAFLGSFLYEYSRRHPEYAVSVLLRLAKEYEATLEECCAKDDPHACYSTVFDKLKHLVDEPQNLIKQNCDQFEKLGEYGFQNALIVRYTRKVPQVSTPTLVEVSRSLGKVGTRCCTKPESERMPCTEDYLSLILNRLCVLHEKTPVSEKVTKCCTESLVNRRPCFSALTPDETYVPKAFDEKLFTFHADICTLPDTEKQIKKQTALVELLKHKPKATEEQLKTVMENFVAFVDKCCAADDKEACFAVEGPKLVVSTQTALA
# T4 sequence (Q9P0L2 whole entry): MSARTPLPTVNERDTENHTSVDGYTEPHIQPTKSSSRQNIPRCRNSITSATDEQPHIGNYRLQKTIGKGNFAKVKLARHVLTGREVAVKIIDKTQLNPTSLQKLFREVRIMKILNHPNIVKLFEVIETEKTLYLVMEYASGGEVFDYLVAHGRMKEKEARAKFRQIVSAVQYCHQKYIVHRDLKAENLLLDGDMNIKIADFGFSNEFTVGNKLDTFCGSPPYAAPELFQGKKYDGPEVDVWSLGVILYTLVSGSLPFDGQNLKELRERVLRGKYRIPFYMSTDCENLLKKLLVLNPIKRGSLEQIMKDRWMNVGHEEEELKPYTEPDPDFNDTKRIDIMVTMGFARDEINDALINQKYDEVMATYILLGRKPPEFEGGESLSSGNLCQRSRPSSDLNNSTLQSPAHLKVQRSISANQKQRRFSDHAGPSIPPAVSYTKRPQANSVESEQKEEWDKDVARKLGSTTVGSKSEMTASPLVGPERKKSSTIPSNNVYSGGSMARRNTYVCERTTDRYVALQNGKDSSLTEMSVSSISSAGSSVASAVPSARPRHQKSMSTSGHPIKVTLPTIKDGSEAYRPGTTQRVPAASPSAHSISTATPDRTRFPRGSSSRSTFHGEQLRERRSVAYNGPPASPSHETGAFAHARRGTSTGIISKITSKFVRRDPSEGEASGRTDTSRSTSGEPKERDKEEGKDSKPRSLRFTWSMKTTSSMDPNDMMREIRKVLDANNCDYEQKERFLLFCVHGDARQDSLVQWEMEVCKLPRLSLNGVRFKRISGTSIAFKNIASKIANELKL
# T3 sequence (P49840 whole entry): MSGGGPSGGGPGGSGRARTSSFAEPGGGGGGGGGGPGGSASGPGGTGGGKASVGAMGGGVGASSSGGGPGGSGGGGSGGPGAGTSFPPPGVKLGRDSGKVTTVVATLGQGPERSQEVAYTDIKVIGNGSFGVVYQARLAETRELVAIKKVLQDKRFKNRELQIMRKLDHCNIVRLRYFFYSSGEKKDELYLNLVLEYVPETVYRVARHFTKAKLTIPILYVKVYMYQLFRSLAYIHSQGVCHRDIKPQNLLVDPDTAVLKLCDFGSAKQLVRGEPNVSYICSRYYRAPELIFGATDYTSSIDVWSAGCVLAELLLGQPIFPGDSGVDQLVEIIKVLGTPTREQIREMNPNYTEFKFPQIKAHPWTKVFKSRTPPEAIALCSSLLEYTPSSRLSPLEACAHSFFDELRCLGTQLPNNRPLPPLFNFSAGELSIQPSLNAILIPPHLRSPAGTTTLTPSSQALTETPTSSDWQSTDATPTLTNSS
# T1 sequence (P36888 27-993): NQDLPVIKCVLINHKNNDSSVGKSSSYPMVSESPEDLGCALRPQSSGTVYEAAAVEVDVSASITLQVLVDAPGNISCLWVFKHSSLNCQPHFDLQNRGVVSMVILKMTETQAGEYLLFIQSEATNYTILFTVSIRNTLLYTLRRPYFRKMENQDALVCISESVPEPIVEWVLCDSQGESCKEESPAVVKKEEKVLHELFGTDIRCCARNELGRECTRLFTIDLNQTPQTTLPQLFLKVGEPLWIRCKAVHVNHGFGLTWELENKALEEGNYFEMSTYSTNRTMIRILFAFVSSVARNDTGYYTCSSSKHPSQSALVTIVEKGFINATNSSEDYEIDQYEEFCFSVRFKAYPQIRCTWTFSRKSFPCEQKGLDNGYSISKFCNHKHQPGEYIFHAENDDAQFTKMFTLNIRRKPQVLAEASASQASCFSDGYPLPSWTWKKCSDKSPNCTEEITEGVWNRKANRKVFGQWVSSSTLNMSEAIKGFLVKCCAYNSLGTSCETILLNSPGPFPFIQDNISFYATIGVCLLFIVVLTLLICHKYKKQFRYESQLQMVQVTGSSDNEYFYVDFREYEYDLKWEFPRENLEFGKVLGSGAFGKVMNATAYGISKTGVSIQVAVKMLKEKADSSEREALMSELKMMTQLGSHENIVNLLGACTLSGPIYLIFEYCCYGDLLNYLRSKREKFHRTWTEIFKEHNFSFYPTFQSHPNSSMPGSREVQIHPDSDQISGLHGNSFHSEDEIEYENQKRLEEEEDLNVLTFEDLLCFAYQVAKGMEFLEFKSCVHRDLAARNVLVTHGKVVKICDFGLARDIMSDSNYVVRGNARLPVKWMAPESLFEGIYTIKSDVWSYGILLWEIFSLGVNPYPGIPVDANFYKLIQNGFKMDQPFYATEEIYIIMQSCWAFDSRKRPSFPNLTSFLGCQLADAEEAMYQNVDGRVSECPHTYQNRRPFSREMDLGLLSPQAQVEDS
# T8 sequence (P07948 whole entry): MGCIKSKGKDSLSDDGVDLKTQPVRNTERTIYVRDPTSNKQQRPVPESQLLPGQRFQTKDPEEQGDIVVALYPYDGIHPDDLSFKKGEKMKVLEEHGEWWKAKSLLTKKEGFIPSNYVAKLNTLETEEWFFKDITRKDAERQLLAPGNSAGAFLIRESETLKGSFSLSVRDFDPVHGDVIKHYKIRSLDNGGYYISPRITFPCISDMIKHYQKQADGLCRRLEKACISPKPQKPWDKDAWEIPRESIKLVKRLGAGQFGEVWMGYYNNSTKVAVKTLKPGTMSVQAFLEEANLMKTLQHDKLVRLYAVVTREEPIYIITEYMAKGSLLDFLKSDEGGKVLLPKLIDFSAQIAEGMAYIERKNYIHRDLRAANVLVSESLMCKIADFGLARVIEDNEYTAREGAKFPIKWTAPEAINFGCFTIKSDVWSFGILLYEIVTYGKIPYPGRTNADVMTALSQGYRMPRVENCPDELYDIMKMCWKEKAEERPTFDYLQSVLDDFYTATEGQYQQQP
# Chain of rat liver TrxR (O89049 whole entry): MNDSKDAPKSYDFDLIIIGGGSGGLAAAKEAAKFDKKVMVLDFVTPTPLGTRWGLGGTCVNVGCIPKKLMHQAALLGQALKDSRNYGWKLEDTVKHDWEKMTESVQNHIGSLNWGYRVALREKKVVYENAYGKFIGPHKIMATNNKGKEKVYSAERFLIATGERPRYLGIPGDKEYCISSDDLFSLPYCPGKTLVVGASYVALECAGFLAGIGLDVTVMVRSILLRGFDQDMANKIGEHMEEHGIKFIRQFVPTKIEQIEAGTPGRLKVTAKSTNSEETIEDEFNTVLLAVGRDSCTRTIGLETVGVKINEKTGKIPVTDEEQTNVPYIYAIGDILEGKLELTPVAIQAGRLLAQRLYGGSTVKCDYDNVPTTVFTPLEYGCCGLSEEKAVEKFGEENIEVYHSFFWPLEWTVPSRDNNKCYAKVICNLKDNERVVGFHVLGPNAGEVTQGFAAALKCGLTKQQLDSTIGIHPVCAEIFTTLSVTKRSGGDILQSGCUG
# T6 sequence (P06241 whole entry): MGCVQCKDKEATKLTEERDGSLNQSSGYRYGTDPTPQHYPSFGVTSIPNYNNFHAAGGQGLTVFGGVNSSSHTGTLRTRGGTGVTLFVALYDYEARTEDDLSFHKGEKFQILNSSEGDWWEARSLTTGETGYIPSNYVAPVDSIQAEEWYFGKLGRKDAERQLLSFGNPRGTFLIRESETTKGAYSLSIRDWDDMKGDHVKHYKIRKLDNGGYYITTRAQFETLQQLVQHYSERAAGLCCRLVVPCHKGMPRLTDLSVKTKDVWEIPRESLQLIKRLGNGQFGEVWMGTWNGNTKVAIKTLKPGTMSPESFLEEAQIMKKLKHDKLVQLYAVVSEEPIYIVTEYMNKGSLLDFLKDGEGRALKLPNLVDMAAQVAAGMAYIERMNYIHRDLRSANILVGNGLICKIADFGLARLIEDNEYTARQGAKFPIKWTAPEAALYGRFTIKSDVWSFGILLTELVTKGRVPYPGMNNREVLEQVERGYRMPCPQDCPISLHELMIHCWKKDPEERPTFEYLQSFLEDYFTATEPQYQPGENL
SMILES,IC50 (CEM-C7) [µM],number of γH2AX foci 30 minutes post IR exposure (γH2AX foci in HeLa cells),γH2AX foci 4 hours after IR exposure (γH2AX foci in HeLa cells),IC50 (HCT-116) [µM],IC50 (HeLa) [µM],IC50 (MCF-7) [µM],% Inhibition FLT2 (FLT2) [%],% Inhibition FLT3 (FLT3) [%],% Inhibition ITK (ITK) [%],% Inhibition GSK3α (GSK3α) [%],% Inhibition MARK1 (MARK1) [%],% Inhibition IGF1R (IGF1R) [%],% Inhibition FYN (FYN) [%],% Inhibition MARK2 (MARK2) [%],% Inhibition LYN (LYN) [%],"reactivity with BSA (relative thiol content, -SH titer) (BSA)",inhibition of TrxR activity (rat liver TrxR) [%],change in free -SH on L-cysteine [1]
"CC(C)(C)OC(=O)n1ccc2c[c]([Au-][P+](C3CCCCC3)(C3CCCCC3)C3CCCCC3)ccc21 [Compound 4, 5-{Tricyclohexylphosphine aurate(I)}-tert-butyl1H-indole-1-carboxylate]",9.7,increase in the number of γH2AX foci,a significant number of γH2AX foci persist,22.8,16.2,34.4,0,0,3.1,5.8,11.9,4.7,1.2,26.2,0,–,–,–
"CC(C)(C)OC(=O)n1ccc2c[c]([Au-][P+](c3ccccc3)(c3ccccc3)c3ccccc3)ccc21 [Compound 3, 5-{Triphenylphosphine aurate(I)}-tert-butyl1H-indole-1-carboxylate]",19.9,lower numbers of γH2AX foci,–,11.5,2.5,16.2,–,–,–,–,–,–,–,–,–,relative thiol content of BSA remains unchanged,17,does not change the titer of free —SH; also recorded: does not cause a change in the amount of free —SH
